# Data taken from PubChem BioAssay AID2060905 (Molecular Pharmacology Branch, DTP, NCI, 2025).
# Test system: 282377-053-R-J1-PDC complex spheroid viability
# Test: Anticancer human tumor 282377-053-R-J1-PDC patient-derived colon adenocarcinoma cell line growth inhibition [RAS]
# Conditions: for IC50: curve of first compound; for viability, T/C: stronger effect = lower value
# Method in brief: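 Multi-cell-type spheroids: tumor cells plus HUVEC endothelial cells and mesenchymal stem cells. RAS-pathway inhibitors were combined with targeted agents, each dosed in half-log steps down from clinical Cmax, or from 10 microM when Cmax was unknown.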
# [1] = second compound 0.00316 µM, first compound 0.0316 µM
# [2] = second compound 0.00316 µM, first compound 0.1 µM
# [3] = second compound 0.00316 µM, first compound 0.316 µM
# [4] = second compound 0.00316 µM, first compound 1 µM
# [5] = second compound 0.00316 µM, first compound 3.16 µM
# [6] = second compound 0.00316 µM, first compound 10 µM
# [7] = second compound 0.01 µM, first compound 0.0316 µM
# [8] = second compound 0.01 µM, first compound 0.1 µM
# [9] = second compound 0.01 µM, first compound 0.316 µM
# [10] = second compound 0.01 µM, first compound 1 µM
# [11] = second compound 0.01 µM, first compound 3.16 µM
# [12] = second compound 0.01 µM, first compound 10 µM
# [13] = second compound 0.0316 µM, first compound 0.0316 µM
# [14] = second compound 0.0316 µM, first compound 0.1 µM
# [15] = second compound 0.0316 µM, first compound 0.316 µM
# [16] = second compound 0.0316 µM, first compound 1 µM
# [17] = second compound 0.0316 µM, first compound 3.16 µM
# [18] = second compound 0.0316 µM, first compound 10 µM
# [19] = second compound 0.1 µM, first compound 0.0316 µM
# [20] = second compound 0.1 µM, first compound 0.1 µM
# [21] = second compound 0.1 µM, first compound 0.316 µM
# [22] = second compound 0.1 µM, first compound 1 µM
# [23] = second compound 0.1 µM, first compound 3.16 µM
# [24] = second compound 0.1 µM, first compound 10 µM
# [25] = second compound 0.316 µM, first compound 0.0316 µM
# [26] = second compound 0.316 µM, first compound 0.1 µM
# [27] = second compound 0.316 µM, first compound 0.316 µM
# [28] = second compound 0.316 µM, first compound 1 µM
# [29] = second compound 0.316 µM, first compound 3.16 µM
# [30] = second compound 0.316 µM, first compound 10 µM
# [31] = second compound 1 µM, first compound 0.0316 µM
# [32] = second compound 1 µM, first compound 0.1 µM
# [33] = second compound 1 µM, first compound 0.316 µM
# [34] = second compound 1 µM, first compound 1 µM
# [35] = second compound 1 µM, first compound 3.16 µM
# [36] = second compound 1 µM, first compound 10 µM
# 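Note: spheroids exposed to agents for seven days before readout.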
# 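Throughout, for viability, T/C: luminescence viability as percent of DMSO vehicle control wells.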
compound,measurement,setting,value
CC1(O)CCCC1n1c(=O)c(C(F)F)cc2cnc(NC3CCN(S(C)(=O)=O)CC3)nc21 (centres undefined) + C=CC(=O)N1CCN(c2nc(OCC3CCCN3C)nc3c(F)c(-c4nc(N)cc(C)c4C(F)(F)F)c(Cl)cc23)C(C)C1,IC50,second compound 0.00316 µM,6.01 µM
same,IC50,second compound 0.01 µM,6.03 µM
same,IC50,second compound 0.0316 µM,5.93 µM
same,IC50,second compound 0.1 µM,6.22 µM
same,IC50,second compound 0.316 µM,6.21 µM
same,IC50,second compound 1 µM,6.48 µM
same,"viability, T/C",[1],124%
same,"viability, T/C",[2],124%
same,"viability, T/C",[3],134%
same,"viability, T/C",[4],106%
same,"viability, T/C",[5],109%
same,"viability, T/C",[6],2.69%
same,"viability, T/C",[7],118%
same,"viability, T/C",[8],113%
same,"viability, T/C",[9],107%
same,"viability, T/C",[10],122%
same,"viability, T/C",[11],110%
same,"viability, T/C",[12],2.79%
same,"viability, T/C",[13],102%
same,"viability, T/C",[14],141%
same,"viability, T/C",[15],123%
same,"viability, T/C",[16],110%
same,"viability, T/C",[17],107%
same,"viability, T/C",[18],3.33%
same,"viability, T/C",[19],107%
same,"viability, T/C",[20],117%
same,"viability, T/C",[21],124%
same,"viability, T/C",[22],118%
same,"viability, T/C",[23],119%
same,"viability, T/C",[24],2.9%
same,"viability, T/C",[25],108%
same,"viability, T/C",[26],112%
same,"viability, T/C",[27],125%
same,"viability, T/C",[28],111%
same,"viability, T/C",[29],128%
same,"viability, T/C",[30],2.56%
same,"viability, T/C",[31],131%
same,"viability, T/C",[32],131%
same,"viability, T/C",[33],135%
same,"viability, T/C",[34],132%
same,"viability, T/C",[35],129%
same,"viability, T/C",[36],2.51%
CCC(CC)c1cc(NC2CCC(N)C2)n2nccc2n1 (centres undefined) + C=CC(=O)N1CCN(c2nc(OCC3CCCN3C)nc3c(F)c(-c4nc(N)cc(C)c4C(F)(F)F)c(Cl)cc23)C(C)C1,IC50,second compound 0.00316 µM,1.94 µM
same,IC50,second compound 0.01 µM,1.9 µM
same,IC50,second compound 0.0316 µM,1.82 µM
same,IC50,second compound 0.1 µM,1.69 µM
same,IC50,second compound 0.316 µM,1.86 µM
same,IC50,second compound 1 µM,1.89 µM
same,"viability, T/C",[1],117%
same,"viability, T/C",[2],101%
same,"viability, T/C",[3],93.8%
same,"viability, T/C",[4],116%
same,"viability, T/C",[5],7.62%
same,"viability, T/C",[6],2.24%
same,"viability, T/C",[7],110%
same,"viability, T/C",[8],98.1%
same,"viability, T/C",[9],92%
same,"viability, T/C",[10],115%
same,"viability, T/C",[11],7.28%
same,"viability, T/C",[12],1.55%
same,"viability, T/C",[13],103%
same,"viability, T/C",[14],97%
same,"viability, T/C",[15],96.3%
same,"viability, T/C",[16],94.5%
same,"viability, T/C",[17],8.89%
same,"viability, T/C",[18],1.69%
same,"viability, T/C",[19],124%
same,"viability, T/C",[20],107%
same,"viability, T/C",[21],113%
same,"viability, T/C",[22],85.3%
same,"viability, T/C",[23],7.78%
same,"viability, T/C",[24],1.54%
same,"viability, T/C",[25],111%
same,"viability, T/C",[26],105%
same,"viability, T/C",[27],109%
same,"viability, T/C",[28],100%
same,"viability, T/C",[29],7.41%
same,"viability, T/C",[30],1.9%
same,"viability, T/C",[31],109%
same,"viability, T/C",[32],103%
same,"viability, T/C",[33],123%
same,"viability, T/C",[34],102%
same,"viability, T/C",[35],7.89%
same,"viability, T/C",[36],2.25%
